Experimental data published in BindingDB's records for doi:10.7270/Q2N58JS6 (University of Pittsburgh, 2007).

Each compound was assayed against Serine/threonine-protein kinase PLK1 (Homo sapiens, UniProt P53350) (assay: H2O2 production by redox-active compounds – biochemical, 1 mM DTT, artefact control for Plk1 PBD inhibitor project, dose response (AID 936)).
Serine/threonine-protein kinase PLK1, sequence (P53350 whole entry): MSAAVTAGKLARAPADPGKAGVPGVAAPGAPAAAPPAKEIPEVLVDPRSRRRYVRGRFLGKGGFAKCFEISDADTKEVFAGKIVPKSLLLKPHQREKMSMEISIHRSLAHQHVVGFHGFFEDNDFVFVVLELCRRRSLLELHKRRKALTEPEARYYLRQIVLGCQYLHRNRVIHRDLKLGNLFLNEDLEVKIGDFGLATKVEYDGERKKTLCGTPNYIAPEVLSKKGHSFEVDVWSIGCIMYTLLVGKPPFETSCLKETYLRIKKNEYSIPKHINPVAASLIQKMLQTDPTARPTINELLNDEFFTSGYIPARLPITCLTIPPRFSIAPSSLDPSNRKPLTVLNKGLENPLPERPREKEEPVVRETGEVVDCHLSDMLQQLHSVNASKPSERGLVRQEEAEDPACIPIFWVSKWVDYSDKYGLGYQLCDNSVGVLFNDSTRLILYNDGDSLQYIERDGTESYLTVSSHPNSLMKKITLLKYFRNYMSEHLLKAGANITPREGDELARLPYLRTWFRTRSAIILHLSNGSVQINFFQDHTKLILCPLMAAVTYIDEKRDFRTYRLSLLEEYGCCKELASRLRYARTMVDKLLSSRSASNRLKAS

Row | SMILES | EC50 [µM]
1 | O=C1C(=O)c2ccccc2-c2ccccc21 | > 50
2 | Cc1ccc(-n2c(O)c(C=NCCN3CCOCC3)c(=O)[nH]c2=O)cc1 | > 50
3 | CCOC(=O)c1ccc(NC(=O)c2c(O)[nH]c(=O)[nH]c2=O)cc1 | > 50
4 | O=c1[nH]cc(COCc2ccccc2)c(=O)[nH]1 | > 50
5 | Cc1ccc(NC2=CC(=NS(=O)(=O)c3cccs3)c3ccccc3C2=O)c(C)c1 | > 50
6 | CN1C(=O)N(C)C(=O)C2(Sc3ccccc3C2=O)C1=O [1',3'-dimethylspiro[benzothiophene-2,5'-hexahydropyrimidine]-2',3,4',6'-diquinone] | > 50
7 | Cc1ccc2c(c1)CC1(CN2C)C(=O)NC(=O)N(c2ccccc2C)C1=O (stereo not given) [1',6'-dimethyl-1-(2-methylphenyl)spiro[1,3-diazinane-5,3'-2,4-dihydroquinoline]-2,4,6-trione] | > 50
8 | Cc1nc2c(=O)n(C)c(=O)nc-2n(C)n1 [1,3,6-Trimethyl-1H-pyrimido[5,4-e][1,2,4]triazine-5,7-dione] | > 50
9 | Cn1c(=O)c2c(ncn2CCCc2ccccc2)n(C)c1=O [1,3-Dimethyl-7-(3-phenyl-propyl)-3,7-dihydro-purine-2,6-dione] | > 50
10 | Cc1ccc(CNC(=O)c2cc3c(=O)n(C)c4ccccc4c3n2C)cc1 [1,5-dimethyl-N-[(4-methylphenyl)methyl]-4-oxidanylidene-pyrrolo[3,2-c]quinoline-2-carboxamide] | > 50
11 | O=C(Nc1ccccn1)C1CCN(S(=O)(=O)c2cccc3nonc23)CC1 [1-(2,1,3-benzoxadiazol-4-ylsulfonyl)-N-(2-pyridinyl)-4-piperidinecarboxamide] | > 50
12 | Cn1c(=O)c(NCCO)c2c3c(cccc31)C(=O)c1ccccc1-2 [1-(2-Hydroxy-ethylamino)-3-methyl-3H-naphtho[1,2,3-de]quinoline-2,7-dione] | > 50
13 | COc1cc(S(=O)(=O)N2CCCCCC2)ccc1-n1cnnn1 [1-(3-Methoxy-4-tetrazol-1-yl-benzenesulfonyl)-azepane] | > 50
14 | COc1ccc(CC2NCCC3(O)CCCCC23)cc1 (stereo not given) [1-(4-Methoxy-benzyl)-octahydro-isoquinolin-4a-ol] | > 50
15 | O=C1CN(c2ccc(Br)cc2)C(=O)N1CC(=O)N1CCCc2ccccc21 [1-(4-bromophenyl)-3-[2-(3,4-dihydro-1(2H)-quinolinyl)-2-oxoethyl]-2,4-imidazolidinedione] | > 50
16 | CCCSc1nc(N2CCOCC2)c2c(c1C#N)CCCC2 [1-(4-morpholinyl)-3-(propylthio)-5,6,7,8-tetrahydroisoquinoline-4-carbonitrile] | > 50
17 | CS(=O)(=O)N1CCN(C/C=C/c2ccccc2)CC1 [1-(methylsulfonyl)-4-(3-phenyl-2-propen-1-yl)piperazine] | > 50
18 | Fc1ccc(Cn2nnnc2CN2CCN(C3CCCC3)CC2)cc1 [1-Cyclopentyl-4-[1-(4-fluoro-benzyl)-1H-tetrazol-5-ylmethyl]-piperazine] | > 50
19 | NC(=O)C1(N2CCCCC2)CCN(C(=O)NC2CCCCC2)CC1 [1-N-cyclohexyl-4-piperidin-1-ylpiperidine-1,4-dicarboxamide] | > 50
20 | CC(=O)N1CCc2cc(Br)cc(S(=O)(=O)NCc3ccccn3)c21 [1-acetyl-5-bromo-N-(2-pyridinylmethyl)-2,3-dihydroindole-7-sulfonamide] | > 50
21 | CCOC(=O)c1cc2n(c1N)-c1ccccc1C2=O [1-amino-4-keto-pyrrol[1,2-a]indole-2-carboxylic acid ethyl ester] | > 50
22 | O=C(c1ccc(-n2cnnn2)cc1)N1CCCCC1 [1-piperidinyl-[4-(1-tetrazolyl)phenyl]methanone] | > 50
23 | Cn1c(-c2cc3ccc(OC(=O)C(C)(C)C)cc3oc2=O)nc2ccccc21 [2,2-Dimethyl-propionic acid 3-(1-methyl-1H-benzoimidazol-2-yl)-2-oxo-2H-chromen-7-yl ester] | > 50
24 | O=C(Nc1cccn(Cc2c(Cl)cccc2Cl)c1=O)c1c(Cl)cccc1Cl [2,6-dichloro-N-[1-(2,6-dichlorobenzyl)-2-keto-3-pyridyl]benzamide] | > 50
25 | Nc1cc(-c2ccc(Br)cc2)nn1S(=O)(=O)c1cccc2nsnc12 [2-(2,1,3-benzothiadiazol-4-ylsulfonyl)-5-(4-bromophenyl)-3-pyrazolamine] | > 50
26 | O=C(O)C1CCCCC1C(=O)Nc1ccc2c(c1)OCCO2 (stereo not given) [2-(2,3-dihydro-1,4-benzodioxin-6-ylcarbamoyl)cyclohexane-1-carboxylic acid] | > 50
27 | COc1ccccc1C1SCCN1S(=O)(=O)c1cccc(C(F)(F)F)c1 (stereo not given) [2-(2-Methoxy-phenyl)-3-(3-trifluoromethyl-benzenesulfonyl)-thiazolidine] | > 50
28 | NC(=O)Cn1c(S(=O)(=O)Cc2ccccc2)nc2ccccc21 [2-(2-benzylsulfonylbenzimidazol-1-yl)acetamide] | > 50

Row | SMILES | EC50 [µM]
29 | COc1ccc(Nc2oc(-c3ccccc3Cl)nc2C#N)cc1 [2-(2-chlorophenyl)-5-(4-methoxyanilino)-1,3-oxazole-4-carbonitrile] | > 50
30 | Cc1nn(C(C)C(=O)N2CCCCC2)c(=O)c2c1sc1ccccc12 (stereo not given) [2-(2-keto-1-methyl-2-piperidino-ethyl)-4-methyl-benzothiopheno[2,3-d]pyridazin-1-one] | > 50
31 | O=C(Cc1ccc(Cl)cc1)NCCN1CCCC1 [2-(4-Chloro-phenyl)-N-(2-pyrrolidin-1-yl-ethyl)-acetamide] | > 50
32 | CNC(=O)CC(C(=O)O)c1ccc(OCC(C)C)cc1 (stereo not given) [2-(4-Isobutoxy-phenyl)-N-methyl-succinamic acid] | > 50
33 | Cc1ccc(OCC(=O)Nc2ccc(N3CCOCC3)cc2)cc1 [2-(4-methylphenoxy)-N-(4-morpholin-4-ylphenyl)acetamide] | > 50
34 | C=CCSc1nccc(-c2cc(Cl)sc2Cl)n1 [2-(allylsulfanyl)-4-(2,5-dichloro-3-thienyl)pyrimidine] | > 50
35 | CCNC(=O)NC(=O)C(C)OC(=O)c1cccnc1SC (stereo not given) [2-(methylthio)-3-pyridinecarboxylic acid [1-(ethylcarbamoylamino)-1-oxopropan-2-yl] ester] | > 50
36 | Nc1ccc2c(c1)C(=O)C(=O)c1ccccc1-2 [2-Amino-phenanthrene-9,10-dione] | > 50
37 | O=C(CC1C(=O)NCCN1C(=S)Nc1ccccc1)Nc1ccc2c(c1)OCCO2 (stereo not given) [2-[1-(anilinocarbonothioyl)-3-oxo-2-piperazinyl]-N-(2,3-dihydro-1,4-benzodioxin-6-yl)acetamide] | > 50
38 | O=C(CN1C(=O)c2ccccc2C1=O)N1CCN(c2nnc(-c3ccccc3)c3ccccc23)CC1 [2-[2-keto-2-[4-(4-phenylphthalazin-1-yl)piperazino]ethyl]isoindoline-1,3-quinone] | > 50
39 | CCC(Sc1nc2nnc(C)c-2c(N)n1-c1cccc(Cl)c1)C(=O)NCCOC (stereo not given) [2-[4-amino-5-(3-chlorophenyl)-3-methylpyrazolo[3,4-d]pyrimidin-6-yl]sulfanyl-N-(2-methoxyethyl)butanamide] | > 50
40 | O=NCc1cc(Br)ccc1OCC(=O)O [2-[4-bromanyl-2-(hydroxyiminomethyl)phenoxy]ethanoic acid] | > 50
41 | CCN1C(=O)/C(=C/c2nc3ccccc3c(=O)n2-c2ccccc2)c2ccccc21 [2-[(1-ethyl-2-oxo-1,2-dihydro-3H-indol-3-ylidene)methyl]-3-phenyl-4(3H)-quinazolinone] | > 50
42 | COc1ccc(S(=O)(=O)N(C)CC(=O)Nc2ccccc2C(F)(F)F)cc1 [2-[(4-methoxyphenyl)sulfonyl-methyl-amino]-N-[2-(trifluoromethyl)phenyl]acetamide] | > 50
43 | CCn1ncc(CN2CCN(C(=O)Nc3ccccc3C(=O)OC)CC2)c1C [2-[[4-[(1-ethyl-5-methyl-pyrazol-4-yl)methyl]piperazine-1-carbonyl]amino]benzoic acid methyl ester] | > 50
44 | CCn1c(SCC(N)=O)nnc1-c1ccc(S(=O)(=O)N2CCN(C)CC2)cc1 [2-[[4-ethyl-5-[4-(4-methylpiperazin-1-yl)sulfonylphenyl]-1,2,4-triazol-3-yl]sulfanyl]acetamide] | > 50
45 | COC(=O)CNC(=O)C12CC3(C)CC(C)(CC(C)(C3)C1)C2 [2-[[oxo-(3,5,7-trimethyl-1-adamantyl)methyl]amino]acetic acid methyl ester] | > 50
46 | Cc1oc2c(c1C(=O)c1ccccc1)C(=O)C(=O)c1ccccc1-2 [2-methyl-3-(phenylcarbonyl)benzo[g][1]benzofuran-4,5-dione] | > 50
47 | COc1cc(OC)cc(C(=O)NCCCN2CCOCC2)c1 [3,5-Dimethoxy-N-(3-morpholin-4-yl-propyl)-benzamide] | > 50
48 | Cc1cccc(-n2c(CCn3nc(C)c([N+](=O)[O-])c3C)n[nH]c2=S)c1 [3-(2-{4-nitro-3,5-dimethyl-1H-pyrazol-1-yl}ethyl)-4-(3-methylphenyl)-5-sulfanyl-4H-1,2,4-triazole] | > 50
49 | Cc1cc(C)n(-c2nnc3n2N=C(c2ccccc2)CS3)n1 [3-(3,5-dimethyl-1-pyrazolyl)-6-phenyl-7H-[1,2,4]triazolo[3,4-b][1,3,4]thiadiazine] | > 50
50 | Cn1nc(-c2ccc(Cl)cc2)nc2c(=O)n(C)c(=O)nc1-2 [3-(4-Chloro-phenyl)-1,6-dimethyl-1H-pyrimido[5,4-e][1,2,4]triazine-5,7-dione] | > 50
51 | COc1ccc(Cn2c(=O)sc3ccccc32)cc1 [3-(4-Methoxy-benzyl)-3H-benzothiazol-2-one] | > 50
52 | COC(=O)CCc1c(C)[nH]c(=S)[nH]c1=O [3-(6-methyl-4-oxo-2-sulfanylidene-1H-pyrimidin-5-yl)propanoic acid methyl ester] | > 50
53 | CC(C)Sc1nc(N2CCOCC2)c2c(c1C#N)CC(C)(C)N(C)C2 [3-(isopropylthio)-6,6,7-trimethyl-1-morpholino-5,8-dihydro-2,7-naphthyridine-4-carbonitrile] | > 50
54 | O=C1CCC(C(=O)O)(c2ccccc2)C1 (stereo not given) [3-Oxo-1-phenyl-cyclopentanecarboxylic acid] | > 50
55 | Cc1ccc2cc(C(c3nnnn3C3CCCC3)N3CCN(c4ccccc4)CC3)c(=O)[nH]c2c1 (stereo not given) [3-[(1-cyclopentyltetrazol-5-yl)-(4-phenylpiperazin-1-yl)methyl]-7-methyl-1H-quinolin-2-one] | > 50
